# Target: T1, GluD2-A654T-R710W (Rattus norvegicus, UniProt Q63226, A654T/R710W)
# T1 construct: expressed in transfected cells; host or cells: Xenopus laevis oocytes injected with cRNA
# T1 sequence (Q63226 24-1007 A654T/R710W): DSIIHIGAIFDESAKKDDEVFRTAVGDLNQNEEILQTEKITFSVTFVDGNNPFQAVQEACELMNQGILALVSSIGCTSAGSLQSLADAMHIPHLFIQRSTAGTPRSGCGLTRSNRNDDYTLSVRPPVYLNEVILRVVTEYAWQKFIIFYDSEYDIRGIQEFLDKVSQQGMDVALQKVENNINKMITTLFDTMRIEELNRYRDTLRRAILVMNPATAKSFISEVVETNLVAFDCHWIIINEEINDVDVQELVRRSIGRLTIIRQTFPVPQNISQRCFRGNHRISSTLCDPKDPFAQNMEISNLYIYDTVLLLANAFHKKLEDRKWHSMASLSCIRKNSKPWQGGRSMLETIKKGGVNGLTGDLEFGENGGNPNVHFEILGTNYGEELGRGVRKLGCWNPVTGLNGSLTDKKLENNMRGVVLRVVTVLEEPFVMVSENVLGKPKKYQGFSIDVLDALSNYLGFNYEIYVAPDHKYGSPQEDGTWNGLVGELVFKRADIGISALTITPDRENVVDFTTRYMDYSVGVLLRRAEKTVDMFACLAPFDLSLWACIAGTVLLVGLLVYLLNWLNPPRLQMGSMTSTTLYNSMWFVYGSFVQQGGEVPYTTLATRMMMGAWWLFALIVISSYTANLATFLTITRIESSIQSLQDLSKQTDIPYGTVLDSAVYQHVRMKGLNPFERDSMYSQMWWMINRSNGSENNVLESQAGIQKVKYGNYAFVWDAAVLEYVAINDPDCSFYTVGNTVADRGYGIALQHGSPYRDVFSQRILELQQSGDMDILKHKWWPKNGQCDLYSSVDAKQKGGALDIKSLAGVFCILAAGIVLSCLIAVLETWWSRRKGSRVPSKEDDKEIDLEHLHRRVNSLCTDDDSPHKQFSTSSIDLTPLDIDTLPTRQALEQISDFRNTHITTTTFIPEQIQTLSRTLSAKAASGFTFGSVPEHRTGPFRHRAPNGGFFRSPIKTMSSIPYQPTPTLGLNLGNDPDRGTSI
# Assay: TEVC of constitutive current, Xenopus oocytes expressing GluD2-A654T-R710W
# Assay type: cell-based
# Excerpt: Human GluD1 (GRID1) and rat GluD2 (Grid2) cDNAs were introduced into the pGEM-HE and pCI-neo vectors. GRID1 (NM_017551.3) gene fragments were synthesized by Integrated DNA Technologies and cloned into empty vectors using InFusion cloning (Clontech). […] However, rat and human GluD2-encoding cDNA are identical in the M3 domain in which many of the variants we studied reside (see Supplementary Fig. S1). The full open reading frame for both constructs were verified by Sanger sequencing (Eurofins) and the full plasmid sequence was verified by whole plasmid sequencing (plasmidsaurus). Variant cDNA changes identified in patients were introduced into the cloned human GRID1 (NM_017551.3) in pGEM-HE and cloned rat Grid2 cDNA sequence (NM_024379.1) in pGEM-HE vector using Quikchange Lightning (Agilent) protocol according to the manufacturer’s instructions. Vectors were linearized and cRNA was synthesized using T7 RNA mMESSAGE kit (Invitrogen).
# Xenopus laevis oocytes were prepared from ovaries purchased from Xenopus 1 (Dexter, MI) as previously described, [68] and incubated at 16°C in culture Barth’s solution (in mM) 88 NaCl, 2.4 NaHCO3, 1 KCl, 0.33 Ca(NO3)2, 0.41 CaCl2, 0.82 MgSO4, 10 HEPES, pH 7.4 with NaOH, supplemented with 1 U/ml penicillin and 1 μg/ml streptomycin. Oocytes were injected with approximately 5–40 ng RNA per oocyte and then incubated at 16–19°C for 1–3 days in culture Barth’s solution. […] Two-electrode voltage clamp (TEVC) recordings were performed as previously described. Unless otherwise specified, extracellular solution contained (in mM) 90 NaCl, 3 KCl, 0.5 BaCl2, 0.01 EDTA, 10 HEPES, and was brought to pH 7.4 with NaOH. The oocytes were placed in a dual track recording chamber and gravity perfused with solution exchange controlled via a computer-driven 8-valve positioner (Digital MVP Valve). […] Recording electrodes were filled with 0.3 M KCl, and currents were recorded with membrane voltage held at −40 mV. To establish constitutive activity of recombinant receptors when compared to wild type receptors, we used the oocyte recording solution described above, but with 90 mM N-methyl-D-glucamine (NMDG) chloride replacing 90 mM NaCl. […] For Ca^2+ concentration-response curves, choline chloride was used to maintain equimolar concentrations of Cl^− ions in the extracellular solution across the changing concentrations of calcium chloride. All compounds used in this study for concentration-response oocyte recordings were dissolved in deionized water as 50–100 mM stock solutions. In some rescue pharmacology experiments, we substituted 1 mM CaCl2 for 0.5 mM BaCl2 to evaluate Ca^2+-dependent control of receptor responses.
Compound,"Effect on constitutive current, in words (compared to GluD2-A654T controls)",Ca2+ % Max (NMDG+ − Na+) Mean ± SEM (normalized to NMDG+ − Na+ difference current),"EC50 (potentiation of constitutive current, read-out: Ca2+ EC50 [95% CI]) [µM]",Ca2+ EC50 A654T/EC50 variant (ratio),D-serine % Max (NMDG+ − Na+) Mean ± SEM (percent of constitutive leak current (NMDG+/Na+ difference current))
[Ca+2] [Ca^2+],increased Ca^2+ potency,245 ± 15 (9) %,80,1.88,–
N[C@H](CO)C(=O)O [D-serine],–,–,–,–,42 ± 3.5 (14) %
